According to patent publication EP0405273A2, “Method for producing readily soluble crystalline alfa-L-aspartyl-L-phenylalanine methyl ester” (MITSUI TOATSU CHEMICALS, Inc., priority 1989, dated 1991):
Peptide text beside a SMILES is read from it.

Columns and labels:
[1] = Solubilization test (time for complete dissolution in water); format: physicochemical; conditions: 250 mg ground sample in 250 ml pure water at 26 ± 2°C, stirred at 350 to 360 rpm, stirring and standing repeated every 30 seconds
Description: The present invention will be described in detail in the following examples, in which the solubilization test was carried out by the following procedure: Solubilization Test
Into 250 ml of pure water having a temperature of 26 ± 2°C which was being stirred (at 350 to 360 rpm by a magnetic stirrer) was poured 250 mg of a ground α-APM sample. Stirring and standing were repeated every 30 seconds. The time required for the sample to dissolve completely was measured.

[2] = Solubilization of conventionally recrystallized α-APM in water at room temperature; format: physicochemical; conditions: 250 mg crushed powder in 250 ml of water at room temperature, stirring and standing alternated every 30 seconds
Excerpt: α-APM purified y conventional recrystallization methods has the disadvantage of poor solubilization (rate of solution) in water.

[3] = widely known property stated in the prior art section; cited from earlier work

| Structure (SMILES) | time required for the sample to dissolve completely [1] [min] | further results |
| --- | --- | --- |
| COC(=O)[C@H](Cc1ccccc1)NC(=O)[C@@H](N)CC(=O)O [Example 5, α-L-aspartyl-L-phenylalanien emthyl ester] (H-Asp-Phe-OMe) | ≤ 5 | – |
| COC(=O)[C@H](Cc1ccccc1)NC(=O)[C@@H](N)CC(=O)O [α-APM obtained conventionally by recrystallization from a 50] [α-L-aspartyl-L-phenylalanien emthyl ester] (H-Asp-Phe-OMe) | – | time required to dissolve completely [2]: more than 15 minutes |
| COC(=O)[C@H](Cc1ccccc1)NC(=O)[C@@H](N)CC(=O)O [Example 4, α-L-aspartyl-L-phenylalanien emthyl ester] (H-Asp-Phe-OMe) | ≤ 5 | – |
| COC(=O)[C@H](Cc1ccccc1)NC(=O)[C@@H](N)CC(=O)O [Example 3, α-L-aspartyl-L-phenylalanien emthyl ester] (H-Asp-Phe-OMe) | ≤ 5 | – |
| COC(=O)[C@H](Cc1ccccc1)NC(=O)[C@@H](N)CC(=O)O [α-APM, α-L-aspartyl-L-phenylalanien emthyl ester] (H-Asp-Phe-OMe) | – | degree of sweetness [3]: about 200 times the sweetness of sucrose |

Now from value to compound, other results behind:

| time required for the sample to dissolve completely [1] [min] | Structure (SMILES) | further results |
| --- | --- | --- |
| ≤ 5 | COC(=O)[C@H](Cc1ccccc1)NC(=O)[C@@H](N)CC(=O)O [Example 2, α-L-aspartyl-L-phenylalanien emthyl ester] (H-Asp-Phe-OMe) | – |
| 25 | COC(=O)[C@H](Cc1ccccc1)NC(=O)[C@@H](N)CC(=O)O [Comparative Example, α-L-aspartyl-L-phenylalanien emthyl ester, reference compound] (H-Asp-Phe-OMe) | – |
| ≤ 5 | COC(=O)[C@H](Cc1ccccc1)NC(=O)[C@@H](N)CC(=O)O [Example 1, α-L-aspartyl-L-phenylalanien emthyl ester] (H-Asp-Phe-OMe) | – |
